One test concerns Notch. The experiment in a line: Single-cell RNA-seq of leukemic cells of ETP T-ALL patients before and after GSI treatment. The note with it: scRNA-seq. The class given is in vivo, human. From the text:
Banked blood or bone marrow samples from patients with relapsed/refractory ETP T-ALL (see Table 1) were used in this study. All patients provided informed consent and were enrolled on a phase I clinical trial (NCT01363817) with the γ-secretase inhibitor (GSI) BMS-906024, a Notch inhibitor. Ayala Pharmaceuticals is investigating AL101 (BMS-906024) in a Phase II open-label, single-arm, multicenter study in ACC patients harboring known NOTCH1-4 activating mutations (ACCURACY; NCT03691207). Normal donor blood was obtained from Research Blood Components, LLC; and mononuclear cells (PBMCs) were isolated using Ficoll-Paque PLUS from GE Healthcare.
Full-length single-cell RNA-seq libraries were prepared using the SMART-seq2 protocol (Picelli et al., 2014 Nat Protoc, 9(1):171-181). cDNA was fragmented using Nextera XT (Illumina) and amplified with indexed Nextera PCR primers. Products were quantified using a Bioanalyzer High Sensitivity DNA Kit. Pooled libraries were sequenced on a NextSeq 500 (Illumina) with an average sequencing depth of 0.5-1 million reads per cell.
Processing and quality filtering of scRNA-seq data was carried out using trimmomatic^21, STAR (Dobin et al., 2013 Bioinformatics, 29(1):15-21), HTSeq (Anders et al., 2015 Bioinformatics, 31(2):166-169) and RSEM (Li et al., 2011 BMC Bioinformatics, 12:323). Clustering of single-cell profiles and marker gene analyses were performed using PAGODA2 (Fan et al., 2016 Nature methods, 13(3):241-244), monocole2 (Trapnell et al., 2014 Nat Biotechnol, 32(4):381-386), SEURAT (Butler et al., 2018 Nature Biotechnology, 36(5):411-420) and RNA velocity (La et al., 2018 Nature, 560(7719):494-498). Single nucleotide variant and copy number analyses were performed with mutect2 (Cibulskis et al., 2013 Nat Biotechnol, 31(3):213-219), InferCNV (Patel et al., 2014 Science, 344(6190):1396-1401; Tirosh et al., 2016 Science, 352(6282):189-196) and CONICSmat (Muller et al., 2018 Bioinformatics, 34(18):3217-3219). Single-cell profiles were compared with cell types from ImmGen (Heng et al., 2008 Nat Immunol, 9[…] a log-likelihood model. Transcriptional regulon and signaling pathway activities were analyzed with SCENIC (Fernandez et al., 2016 Cell Syst, 3(5):491-495 e495) and PROGENy (Schubert et al., 2018 Nat Commun, 9(1):20). Further details of the analysis are set forth below.
In order to fully define ETP T-ALL heterogeneity on the single-cell level, a full-length transcriptome analysis of 5,077 malignant and normal immune cells (T-cells, B-cells and monocytes) was performed from bone marrow or blood from four healthy donors and five patients with relapsed/refractory ETP T-ALL, diagnosed by immunophenotyping for ETP T-ALL, all with NOTCH1 gain-of-function mutations. These patients were treated with the γ-secretase inhibitor (GSI), and pre- and post-treatment samples were processed for this study.
The effects of Notch inhibition were next explored. […] It was hypothesized that persistence of a stem-like population might be the reason for the limited effects of Notch inhibitors in patients with relapsed/refractory Notch-mutant T-ALL.

In the next test the test system is HPB-ALL T-ALL cell line. The experiment in a line: Cell proliferation assay (CellTiter-Glo cell viability), HPB-ALL. The class given is cell-based. Conditions: Homo sapiens, HPBALL, 168 h, 7 days, read-out: IC50, cell viability normalized to DMSO. The procedure:
(§1) FIG. 16A-16E is a series of graphs showing inhibition of T-ALL proliferation by PI3K inhibitor is increased when combined with GSI. DND-41, HPB-ALL, KOPT-K1, Jurkat and Loucy T-ALL cell lines were treated with Buparlisib, GSI, Buparlisib with 1 μM of GSI or DMSO for 7 days. Dose response curves of cell viability normalized to DMSO are shown (datapoints are derived from 3 replicates each, error bars show standard deviation).
(§2) The leukemia cell lines (all verified by STR profiling) DND-41, KOPT-K1, HPB-ALL, Loucy, MOLT-4, NALM-6, SEM, KG-1 and HL-60 were obtained from ATCC or DSMZ, and were cultured in RPMI 1640 with 10% of heat-inactivated fetal bovine serum, 1% penicillin/streptomycin (Invitrogen).
(§3) Buparlisib (Selleckchem) and GSI (Santa Cruz Biotechnology, Inc) were prepared in DMSO (Sigma-Aldrich). Cell proliferation assays were measured by CellTiter-Glo Luminescent Cell viability assay (Promega), after a period of seven days. IC50 values were calculated by fitting the dose-response curves to a three-parameter sigmoid dose-response model using GraphPad. Error bars reflect standard deviation.
On the technique in general: In ATP-based viability assays light output follows the ATP content of the culture.

In the next test the test system is DND-41 T-ALL cell line. The experiment in a line: Cell proliferation assay (CellTiter-Glo cell viability), DND-41. It counts as cell-based. The note with it: DND41, 168 h, 7 days, read-out: IC50, cell viability normalized to DMSO. The procedure:
as §1, §2, §3

The test system of a further test is Jurkat T-ALL cell line. The experiment in a line: Cell proliferation assay (CellTiter-Glo cell viability), Jurkat. It counts as cell-based. The note with it: Homo sapiens, 168 h, 7 days, read-out: IC50, cell viability normalized to DMSO. As for the experimental part: as §1, §3
A further test relates to KOPT-K1 T-ALL cell line. The experiment in a line: Cell proliferation assay (CellTiter-Glo cell viability), KOPT-K1. The class given is cell-based. Conditions: Homo sapiens, KOPTK1, 168 h, 7 days, read-out: IC50, cell viability normalized to DMSO. As for the experimental part: as §1, §2, §3
In the next test the test system is Loucy T-ALL cell line. The experiment in a line: Cell proliferation assay (CellTiter-Glo cell viability), Loucy. It counts as cell-based. Conditions: 168 h, 7 days, read-out: IC50, cell viability normalized to DMSO. The procedure: as §1, §2, §3
Where [1] appears, read: ETP T-ALL patients treated with GSI.

Structures are written as SMILES. pIC50: −log10 of the molar value. Where two headings read alike, the source gives them in different places.

As for `CN1C(=O)[C@@H](NC(=O)[C@H](CCC(F)(F)F)[C@H](CCC(F)(F)F)C(N)=O)N=C(c2ccccc2)c2ccccc21` [GSI, BMS-906024], in the test on Notch (setting [1]), the “Cell cycle of leukemic cells upon treatment” value was “Cell cycle arrest” and the “Notch target gene expression upon treatment” value is listed as “downregulation of Notch target genes”. In the test with Notch (ETP T-ALL patients), the “Cycling stem-like root cells (root2) after treatment” value is “abolishes the cycling stem-like root cells (root2)” and the “Non-cycling root cells (root1) after treatment” value was “persist in the face of treatment”. For the same compound, the “Cells with high PI3K signaling activity compared to untreated cells” value in the test with Notch (ETP T-ALL patients, PROGENy) is given as “enrichment of cells with high PI3K signaling activity”.
With `Nc1cc(C(F)(F)F)c(-c2cc(N3CCOCC3)nc(N3CCOCC3)n2)cn1` [Buparlisib], the pIC50 was 6.47 with HPB-ALL T-ALL cell line (Buparlisib alone); 11.14 in the test on HPB-ALL T-ALL cell line (Buparlisib with 1 μM of GSI); 6.00 with DND-41 T-ALL cell line (DND-41, Buparlisib alone); 6.88 with DND-41 T-ALL cell line (DND-41, Buparlisib with 1 μM of GSI); 6.14 with Jurkat T-ALL cell line (Buparlisib alone); 6.37 with Jurkat T-ALL cell line (Buparlisib with 1 μM of GSI). The negative logarithm of the IC50 (pIC50) in the test with KOPT-K1 T-ALL cell line (KOPT-K1, Buparlisib alone) is 5.94; in the test with KOPT-K1 T-ALL cell line (KOPT-K1, Buparlisib with 1 μM of GSI), 6.60; in the test with Loucy T-ALL cell line (Buparlisib alone), 6.19; in the test on Loucy T-ALL cell line (Buparlisib with 1 μM of GSI), 6.15.

As usually defined, the pIC50 is the IC50 on a negative log10 scale, so that one unit is a factor of ten.

Source of the values: patent publication US12559559B2, “Targeting Galectin-9 as a therapeutic strategy for T-cell exhaustion in T-cell acute lymphoblastic leukemia” (DANA-FARBER CANCER INSTITUTE, INC., priority 2019, dated 2026).
